These results are taken from US20080146559A1, “4,5,6,7-Tetrahydro-Thieno [2,3-C] Pyridine Derivatives” (priority 2006, published 2008).

In this assay the target is T1, human H3R (Homo sapiens, UniProt Q9Y5N1).
T1 construct: expressed in transfected cells; host or cells: CHO cells (membranes)
T1 sequence (Q9Y5N1 whole entry): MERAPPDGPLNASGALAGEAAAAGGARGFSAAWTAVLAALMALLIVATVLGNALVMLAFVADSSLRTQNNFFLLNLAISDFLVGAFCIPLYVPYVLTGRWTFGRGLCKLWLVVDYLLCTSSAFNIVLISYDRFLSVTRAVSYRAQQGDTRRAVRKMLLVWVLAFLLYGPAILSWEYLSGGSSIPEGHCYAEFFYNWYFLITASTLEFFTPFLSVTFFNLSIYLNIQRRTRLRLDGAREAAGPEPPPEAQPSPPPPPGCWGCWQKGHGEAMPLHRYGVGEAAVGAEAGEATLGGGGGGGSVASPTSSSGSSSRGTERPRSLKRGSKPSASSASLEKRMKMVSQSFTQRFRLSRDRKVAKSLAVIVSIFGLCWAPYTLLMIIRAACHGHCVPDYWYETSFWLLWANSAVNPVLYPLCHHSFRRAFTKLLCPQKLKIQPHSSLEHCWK
The assay is described as follows: Binding assay with 3H-(R)α-methylhistamine (competition binding). To be noted: membrane of the human H3R-CHO cell line, 3H(R)α-methylhistamine 1 nM, Ki calculated from IC50 by Cheng-Prusoff. On the procedure:
Binding assay with ^3H—(R)α-methylhistamine
Saturation binding experiments were performed using HR3-CHO membranes prepared as described in Takahashi, K, Tokita, S., Kotani, H. (2003) J. Pharmacol. Exp. Therapeutics 307, 213-218.
An appropriate amount of membrane (60 to 80 μg protein/well) was incubated with increasing concentrations of ^3H(R)α-Methylhistamine di-hydrochloride (0.10 to 10 nM). Non specific binding was determined using a 200 fold excess of cold (R)α-Methylhistamine dihydrobromide (500 nM final concentration). The incubation was carried out at room temperature (in deep-well plates shaking for three hours). The final volume in each well was 250 μl. The incubation was followed by rapid filtration on GF/B filters (pre-soaked with 100 μl of 0.5% PEI in Tris 50 mM shaking at 200 rpm for two hours). The filtration was made using a cell-harvester and the filter plates were then washed five times with ice cold washing buffer containing 0.5 M NaCl. After harvesting, the plates were dried at 55° C. for 60 min, then we added scintillation fluid (Microscint 40, 40 microl in each well) and the amount of radioactivity on the filter was determined in Packard top-counter after shaking the plates for two hours at 200 rpm at room temperature.
Binding Buffer: 50 mM Tris-HCl pH 7.4 and 5 mM MgCl2×6H2O pH 7.4. Washing Buffer: 50 mM Tris-HCl pH 7.4 and 5 mM MgCl2×6H2O and 0.5 M NaCl pH 7.4. Indirect measurement of affinity of H3R inverse agonists: twelve increasing concentrations (ranging from 10 μM to 0.3 nM) of the selected compounds were always tested in competition binding experiments using membrane of the human H3R—CHO cell line. An appropriate amount of protein, e.g. approximately 500 cpm binding of RAMH at Kd, were incubated for 1 hour at room temperature in 250 μl final volume in 96-well plates in presence of ^3H(R)α-methylhistamine (1 nM final concentration=Kd). Non-specific binding was determined using a 200 fold excess of cold (R)α-methylhistamine dihydrobromide.
All compounds were tested at a single concentration in duplicate. […] The concentration at which 50% inhibition of the radioligand ^3H(R)α-methylhistamine is obtained (the IC50) is determined from the linear regression of a plot of the logarithm of the concentration versus percent inhibition measured for the different concentrations. Ki's were calculated from IC50 based on Cheng-Prusoff equation (Cheng, Y, Prusoff, W H (1973) Biochem Pharmacol 22, 3099-3108): Ki=IC50/[1+D/Kd] wherein D is the concentration of the radioligand and Kd is the binding constant for the radioligand binding to the receptor under the conditions used in the competition experiment.
The Ki is a measure of affinity in units of concentration, obtained from inhibition or displacement. Consider `Cc1ccc(S(=O)(=O)N2CCc3cc(OC4CCN(C(C)C)C4)sc3C2)cc1` (stereo not drawn) [Example 94, 2-(1-isopropyl-pyrrolidin-3-yloxy)-6-(toluene-4-sulfonyl)-4,5,6,7-tetrahydro-thieno[2,3-c]pyridine], for which the Ki is 64.3 nM.

As for `CC(C)(C)CC(=O)N1CCc2cc(OCCCN3CCCC3)sc2C1` [Example 20, 3,3-dimethyl-1-[2-(3-pyrrolidin-1-yl-propoxy)-4,7-dihydro-5H-thieno[2,3-c]pyridin-6-yl]-butan-1-one], the inhibition constant Ki was 40.9 nM.

As for `O=C(c1cccc(F)c1)N1CCc2cc(OCCCN3CCCCC3)sc2C1` [Example 10, (3-fluoro-phenyl)-[2-(3-piperidin-1-yl-propoxy)-4,7-dihydro-5H-thieno[2,3-c]pyridin-6-yl]-methanone], the Ki was 31.3 nM.

In the case of `O=S(=O)(c1ccccc1)N1CCc2cc(OCCCN3CCCC3)sc2C1` [Example 32, 6-benzenesulfonyl-2-(3-pyrrolidin-1-yl-propoxy)-4,5,6,7-tetrahydro-thieno[2,3-c]pyridine], the inhibition constant (Ki) is 33.6 nM.

For `CC(C)CC(=O)N1CCc2cc(OC3CCN(C(C)C)CC3)sc2C1` [Example 64, 1-[2-(1-isopropyl-piperidin-4-yloxy)-4,7-dihydro-5H-thieno[2,3-c]pyridin-6-yl]-3-methyl-butan-1-one], the inhibitory constant (Ki) is 13.1 nM.

In the case of `CC(C)CN1CCC(Oc2cc3c(s2)CN(C(=O)CC(C)(C)C)CC3)CC1` [Example 44, 1-[2-(1-isobutyl-piperidin-4-yloxy)-4,7-dihydro-5H-thieno[2,3-c]pyridin-6-yl]-3,3-dimethyl-butan-1-one], the inhibition constant Ki is 41.7 nM.
